Experimental data published in patent publication US11685766B2, “14-3-3 targeting peptides for cancer treatment” (Creighton University, priority 2019, dated 2023).
Entries after “also recorded” stand apart in the source; their conditions may differ. Peptide text beside a SMILES is read from it.

Assays:
[1] = system: normal human epidermal keratinocytes (nHEK); assay: Neutral Red Cell Viability assay in normal keratinocytes; format: cell-based; settings: FIG. 1A dashed line
Description: Human skin cancer cell lines (SCC12B.2, SCC13, SRB12) were maintained in Dulbecco's modified Eagle's medium (DMEM) (Invitrogen, Carlsbad, Calif., USA) supplemented with 1% penicillin (10 000 U/ml)-streptomycin (10 000 μg/ml) (PenStrep) (Invitrogen) and 10% fetal bovine serum (Gemini Bio-Products, Sacramento, Calif., USA) at 37° C. and 5% CO2. Normal human epidermal keratinocytes (nHEK) (Thermo Scientific, Waltham, Mass., USA) isolated from neonatal foreskin were cultured in EpiLife medium (Invitrogen) supplemented with human keratinocyte growth supplement (Invitrogen) and 1% PenStrep (Invitrogen). […]
To determine the half maximal inhibitory concentration (IC50) for ES1P2 in SCC12B.2 and nHEK cells, cells were plated in a 96-well plate at a density of 6×10^3 cells/well. […] Neutral Red Cell Viability assays were performed, where absorbance was measured using a Cytation 5 multi-mode plate reader (BioTek). […]

[2] = molecular target: T1, 14-3-3ε binding to CDC25A (Homo sapiens, UniProt P62258); assay: Co-immunoprecipitation / immunoblot of CDC25A bound to 14-3-3ε; format: cell-based; settings: SCC12B.2 cells; for amount of CDC25A on immunoblots of immunoprecipitated 14-3-3ε: pS 30 μM, pT printed 2004, 48 hours, vs vehicle, P≤0.05
T1 construct: endogenous in cells; host or cells: SCC12B.2
T1 sequence (P62258 1-255): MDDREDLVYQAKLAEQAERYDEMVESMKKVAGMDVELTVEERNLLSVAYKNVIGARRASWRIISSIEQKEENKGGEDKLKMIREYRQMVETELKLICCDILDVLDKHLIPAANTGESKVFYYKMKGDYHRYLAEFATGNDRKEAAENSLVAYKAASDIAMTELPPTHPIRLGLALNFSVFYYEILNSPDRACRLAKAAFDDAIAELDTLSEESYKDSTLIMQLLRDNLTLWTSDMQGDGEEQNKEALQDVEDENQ
Description: Co-Immunoprecipitation (Co-IP) was performed using a Dynabeads Protein G Immunoprecipitation kit (Life Technologies, Carlsbad, Calif., USA). Beads were coupled to antibodies targeting 14-3-3ε (Fisher Scientific, Waltham, Mass., USA) or CDC25A (Santa Cruz Biotechnology, Dallas, Tex., USA) at a ratio of 7 μg of antibody for every 1 mg of beads according to the manufacturers protocol. SCC12B.2 cells were treated with vehicle (20 mM Tris buffer, pH 7.5) or fresh peptide (pS or pT) daily at the IC50 concentration for 48 hours in Opti-MEM I Reduced Serum Medium (Invitrogen) and collected by trypsinization. One hundred mg of cells were lysed in 1×IP buffer supplemented with 100 mM sodium chloride, 2 mM dithiothreitol, 1 mM magnesium chloride and protease/phosphatase inhibitors. Immunoprecipitation reactions were carried out using 1.5 mg of antibody-coupled beads incubated with 100 mg of cell lysate at 4° C. for 30 minutes. Negative controls were immunoprecipitation reactions using beads coupled to IgG isotype control antibody (rabbit), and whole lysate from immunoprecipitation input was loaded directly onto a gel was used as a positive control.
Protein was collected by either standard whole-cell lysis using ice-cold radioimmunoprecipitation assay (RIPA) lysis buffer supplemented with protease (Roche Life Scientific) and phosphatase inhibitors (NaF, Na3VO4) or by nuclear/cytosolic extraction using the NE-PER Nuclear and Cytoplasmic Protein Extraction Reagent Kit according to the manufacturer's protocol (Pierce, Rockford, Ill., USA). Tissue protein was extracted by using a tissue grinder to lyse cells in 100 μL of RIPA lysis buffer for every 1 mg of tissue. […] Protein concentration was assessed with the Bradford assay. […] Bands were detected using horseradish peroxidase-conjugated secondary antibodies (IgG mouse or rabbit) (Cell Signaling) and visualized using western lightning plus chemiluminescent reagent (MidSci, Valley Park, Mo., USA) and signal read on a Chemidoc XRS Molecular Imager (Bio-Rad Laboratories, Hercules, Calif., USA).

Row | Structure (SMILES) | toxicity to normal keratinocytes [1] | amount of CDC25A on immunoblots of immunoprecipitated 14-3-3ε [2] | 14-3-3ε precipitation, pS-treated compared to pT-treated samples ([2]; 48 hours)
1 | NCCCC[C@H](NC(=O)[C@H](Cc1c[nH]c2ccccc12)NC(=O)[C@H](Cc1ccc(O)cc1)NC(=O)[C@@H](N)Cc1c[nH]c2ccccc12)C(N)=O [ES1P2, Trp-Tyr-Trp-Lys-NH2] (H-WYWK-NH2) | killed SCC cells but not normal keratinocytes; also recorded: nontoxic |  | 
2 | CC(=O)N[C@@H](CCCNC(=N)N)C(=O)N[C@H](C(=O)N[C@@H](CCCCN)C(=O)N[C@@H](CO)C(=O)N[C@@H](CCCNC(=N)N)C(=O)N[C@H](C(=O)N[C@@H](Cc1c[nH]c2ccccc12)C(=O)N[C@@H](C)C(=O)NCC(=O)N[C@@H](CCC(=O)O)C(=O)N[C@@H](CCCCN)C(=O)N[C@@H](CO)C(=O)N[C@@H](CCCCN)C(=O)N[C@@H](CCCNC(=N)N)C(N)=O)[C@@H](C)OP(=O)(O)O)[C@@H](C)O [pT, Ac-Arg-Thr-Lys-Ser-Arg-Thr(PO3^2−)-Trp-Ala-Gly-Glu-Lys-Ser-Lys-Arg-NH2] (HELM PEPTIDE1{[ac].R.T.K.S.R.[C[C@@H](OP(=O)(O)O)[C@H](N[*:1])C(=O)[*:2]].W.A.G.E.K.S.K.R.[am]}$$$$V2.0) |  | decreases the amount of CDC25A | 
3 | CSCC[C@H](NC(=O)[C@H](CCCNC(=N)N)NC(=O)[C@@H]1CCCN1C(=O)[C@H](C)NC(=O)[C@H](COP(=O)(O)O)NC(=O)[C@H](CC(N)=O)NC(=O)[C@H](CCC(N)=O)NC(=O)[C@H](CCCNC(=N)N)NC(=O)[C@H](CCC(N)=O)NC(=O)[C@@H](NC(C)=O)[C@@H](C)O)C(=O)N[C@@H](CC(C)C)C(=O)N[C@@H](CO)C(=O)N[C@@H](CO)C(=O)N[C@@H](CC(N)=O)C(N)=O [pS, Ac-Thr-Gln-Arg-Gln-Asn-Ser-(PO3^2−)-Ala-Pro-Arg-Met-Leu-Ser-Ser-Asn-NH2] (HELM PEPTIDE1{[ac].T.Q.R.Q.N.[O=C([C@H](COP(=O)(O)O)N[*:1])[*:2]].A.P.R.M.L.S.S.N.[am]}$$$$V2.0) |  | decreases the amount of CDC25A | less 14-3-3ε precipitation
